{"source": "patent US9420796B2", "about": "(priority 2013, dated 2016)", "key": {"[1]": {"system": "adult mussels", "parameters": "species or system zebra mussels", "conditions": "in vivo"}, "[2]": {"system": "zebra mussels", "conditions": "in vivo; cited from earlier work"}}, "note": "Several values for one entry are separate records, joined by “and”; a condition that tells them apart may be missing. Equal values may be shown once."}
{"smiles": "OCl", "note": "[NaOCl, sodium hypochlorite]", "values": [{"measurement": "Day of treatment on which complete mortality was observed", "setting": "[1]", "value": "18 days and 23 days"}, {"measurement": "Mortality rate", "setting": "[2]", "value": "≤ 10", "unit": "%"}]}
{"smiles": "[K+].[O]=[Mn](=[O])(=[O])[O-]", "note": "[KMnO]", "values": [{"measurement": "Mortality rate", "setting": "[2]", "value": "≤ 10", "unit": "%"}]}
